Test results reported in US11661405B2, “Crystal forms of tetrahydro-n,n-dimethyl-2,2-diphenyl-3-furanmethanamine hydrochloride, processes of making such forms, and their pharmaceutical compositions” (ANAVEX LIFE SCIENCES CORP., priority 2015, dated 2023).

How the values were obtained:
[1] = storage stability of crystalline forms, checked by PXRD; format: physicochemical; settings: 40° C., 75% relative humidity, uncapped vessels, 1 week; forms from SCF in ethanol or dichloromethane
From the text: The present disclosure also provides a metabolite of tetrahydro-N,N-dimethyl-2,2-diphenyl-3-furanmethanamine hydrochloride, ANAVEX19-144. […] See for example J. of Psychopharmacol. 25(8), 1101-1117 (2011). Crystalline forms of ANAVEX19-144 were produced by placing the ANAVEX19-144 starting material in a solvent of ethanol or dichloromethane and processed by the supercritical fluid technique. The crystalline form of ANAVEX19-144 produced by the supercritical fluid technique under process parameters of 40 mg/mL ethanol solution, 200 bars of pressure, temperature of 80° C., supercritical CO2 solution with a flow rate of 20 g/min and a TS flow of 0.4 mL/min, was characterized by PXRD, FTIR, DSC, and SEM, as shown in FIGS. 12-15. […] The crystalline form of ANAVEX19-144 produced using the dichloromethane supercritical fluid technique produced a powder with better flow characteristics and improved flow properties for downstream processing. The two crystalline forms of ANAVEX19-144, produced according to the supercritical fluid technique in ethanol or dichloromethane were stored at 40° C. at 75% relative humidity in uncapped vessels for 1 week and then characterized by PXRD to determine stability of the two forms.

[2] = tested on: amyloid toxicity (Aβ25-35); settings: cited from earlier work
[3] = tested on: PI3K neuroprotective pathway (P-Akt, P-GSK-3β), Tau, Aβ1-42; settings: cited from earlier work

With `CNCC1CCOC1(c1ccccc1)c1ccccc1.Cl` (stereo not drawn) [ANAVEX19-144] the “stability of the two crystalline forms (PXRD after storage)” value [1] was “stable under the conditions tested”.
In the case of `CN(C)CC1CCOC1(c1ccccc1)c1ccccc1.Cl` (stereo not drawn) [ANAVEX2-73, tetrahydro-N,N-dimethyl-2,2-diphenyl-3-furanmethanamine hydrochloride], the “oxidative stress, caspases induction, cellular loss and learning and memory deficits” value ([2]; mice one week after i.c.v. injection of oligomeric Aβ25-35) is listed as “attenuating”, the “neuroprotective potential against amyloid toxicity” value ([2]; mice) is listed as “shows neuroprotective potential against amyloid toxicity” and the “Aβ25-35-induced P-Akt decrease and P-GSK-3β increase” value ([3]; Aβ25-35-induced) is listed as “blocked”. The “Aβ25-35-induced endogenous Aβ1-42 seeding” value ([3]; Aβ25-35-induced) was “decrease” and the “hyperphosphorylation of Tau on physiological epitopes (AT-8 clone) and pathological epitopes (AT-100 clone)” value ([3]; in the dose-range tested) was “attenuated”.
